Data as given in patent publication US8450300B2 (priority 2009, dated 2013).
Read-outs that look alike come from different tables or passages of the source.

Experiments:
[1] = Single oral dose bioavailability study, fed/fasted crossover, plasma fusidic acid; conditions: human, in vivo, 500 mg, 500 mg single oral dose; for AUC(0-t): read-out: AUC0-t, geometric mean (CV %); for AUC(0-inf): read-out: AUCinf, geometric mean (CV %); for Cmax: read-out: Cmax, geometric mean (CV %); for half-life: read-out: t1/2, arithmetic mean ± SD (converted); for AUC: read-out: total exposure (AUC)
Description: This was a single-center, Phase 1, double-blind, randomized, 3 period, fed/fasted crossover bioequivalence study designed to evaluate the relative bioavailability and safety and tolerability of a single oral dose of CEM-102 500 mg compared to Fucidin® 500 mg in healthy subjects.
Subjects were randomized in equal numbers to the 4 treatment sequences (Table 3).
Study Period 1, 2, and 3 (Days 1, 15, and 29): One dose of study drug 500 mg (2×250 mg) of CEM-102 or Fucidin® was given at 8:00 AM (˜30 minutes). On Day 1 of Study Periods 1 and 2 (Days 1 and 15), subjects fasted overnight for at least 10 hours prior to dosing. On Day 1 of Study Period 3 (Day 29), subjects were given a high fat caloric meal which was to be entirely consumed within 30 minutes prior to study drug administration.
Blood samples for assay of plasma concentrations were collected on Days 1, 15 and 29 at pre-dose and 0.5, 1, 1.5, 2, 2.5, 3, 3.5, 4, 6, 8, 12, 16, 24, 36, and 48 hours after the dose. Plasma concentrations were assayed at MicroConstants, Inc. in San Diego, Calif. using a validated liquid chromatography with dual tandem mass spectrometry (LC/MS/MS) method with a lower limit of quantitation (LLOQ) of 20.0 ng/mL

[2] = Multi-dose pharmacokinetics 500 mg TID, 13 doses; assay type: in vivo, human; conditions: for AUC: Day 5 (13 doses)
Description: The pharmacokinetics of multiple oral doses of CEM-102 (sodium fusidate) 500 mg tablets in healthy subjects was evaluated. Subjects were randomized in a 3:1 ratio and received either CEM-102 500 mg (2×250 mg; n=18) or placebo tablets TID (n=6) for 4.5 days for a total of 13 doses.
Blood samples for assay of plasma concentrations of CEM-102 and placebo were collected pre-dose on Day 1 and at 24, 48, 72, and 96 hours. Samples were also collected at the following times after the morning dose on Day 5: 0.5, 1, 1.5, 2, 2.5, 3, 3.5, 4, 6, 8, 12, 16, 24, 36, and 48 hours.
Plasma concentrations of CEM-102 were assayed at MicroConstants, Inc. in San Diego, Calif., USA using a validated LC/MS/MS method with a lower limit of quantitation (LLOQ) of 20.0 ng/mL.

[3] = Dose escalation study, single/multiple dose and loading dose regimens: pharmacokinetics; assay type: in vivo, human; conditions: for concentration at 7 days: after 7 days of dosing; for concentration at 7 days / concentration at 24 h: read-out: mean trough plasma concentration
Description: The pharmacokinetics (PK), safety, and tolerability of single and multiple doses of CEM-102 (sodium fusidate) were evaluated in a single-center, Phase 1, double-blind, randomized, placebo-controlled, dose-escalating study in 32 healthy adult subjects enrolled in 4 dosage groups (550, 1100, 1650, and 2200 mg). In each cohort, six subjects were to receive CEM-102 and two were to receive placebo in a single dose (Period 1) and then multiple doses BID for a total of 11 doses over 5.5 days (Period 2). The two dosing periods were separated by a seven-day washout period between the single dose in Period 1 and the first dose in Period 2.
Dosing proceeded as planned for Cohorts 1 to 3; however, Cohort 4 received only the single dose of 2200 mg (Period 1), because dose-limiting gastrointestinal intolerance was observed after multiple doses of 1650 mg BID in Cohort 3. Period 2 for Cohort 4 evaluated an initial loading dose regimen, and a second loading dose regimen was evaluated in an additional cohort (Cohort 5) per a protocol amendment.
The protocol was amended for assessment of the safety, tolerability, and PK of front-loaded dose regimens comprised of a higher dose of CEM-102 on Day 1 followed by lower doses for the subsequent 6.5 days. All loading dose regimens employed multiple doses lower than the maximum tolerated dose (MTD) established in the first part of the study (1650 mg administered as multiple doses).
The loading dose regimens assessed were 1100 mg BID on Day 1 and 550 mg BID on the following 6.5 days in Period 2 of Cohort 4 and 1650 mg BID on Day 1 and 825 mg BID on the following 6.5 days in Cohort 5.

[4] = human, in vivo, 550 mg, Period 1 Day 1, single dose 550 mg
[5] = human, in vivo, 1100 mg BID loading dose then 550 mg BID
[6] = human, in vivo, 1100 mg, Period 1 Day 1, single dose 1100 mg
[7] = human, in vivo, 1650 mg BID loading dose then 825 mg BID
[8] = human, in vivo, 1650 mg, Period 1 Day 1, single dose 1650 mg
[9] = human, in vivo, 2200 mg, Period 1 Day 1, single dose 2200 mg

CC(=O)O[C@H]1C[C@@]2(C)[C@@H](C[C@@H](O)[C@H]3[C@@]4(C)CC[C@@H](O)[C@@H](C)[C@@H]4CC[C@@]32C)/C1=C(\CCC=C(C)C)C(=O)O [CEM-102, Sodium fusidate]
AUC(0-t) ([1]; fasting): 300 µg·h/mL
AUC(0-inf) ([1]; fasting): 318 µg·h/mL
Cmax ([1]; fasting): 27.4 µg/mL
half-life ([1]; fasting): 11.8 ± 2.2 h
AUC ([1]; fasting): ~318 µg·h/mL
AUC(0-t) ([1]; fed): 269 µg·h/mL
AUC(0-inf) ([1]; fed): 285 µg·h/mL
Cmax ([1]; fed): 21.2 µg/mL
half-life ([1]; fed): 11.5 ± 2.75 h
AUC ([1]; fed): ~285 µg·h/mL
trough level ([2]; 500 mg TID, prior to dosing on Day 5): 105 µg/mL
Cmaxss, geometric mean ([2]; human, in vivo, 500 mg): 145.68 µg/mL
AUC ([2]; human, in vivo, 500 mg, 500 mg TID, read-out: AUC0-tss, geometric mean): 3560 µg·h/mL
AUC ([2]; human, in vivo, 500 mg, 500 mg TID, read-out: AUC0-τss, geometric mean): 1030 µg·h/mL
AUC(0-12) accumulation ratio ([3]; Mean AUC(0-12) Day 6/Mean AUC(0-inf) Day 1, 550 mg): 2.61
AUC(0-12) accumulation ratio ([3]; Mean AUC(0-12) Day 6/Mean AUC(0-inf) Day 1, 1100 mg): 2.30
AUC(0-12) accumulation ratio ([3]; Mean AUC(0-12) Day 6/Mean AUC(0-inf) Day 1, 1650 mg): 1.83
Cmax accumulation ratio ([3]; Mean Cmax Day 6/Mean Cmax Day 1, 550 mg): 3.89
Cmax accumulation ratio ([3]; Mean Cmax Day 6/Mean Cmax Day 1, 1100 mg): 3.89
Cmax accumulation ratio ([3]; Mean Cmax Day 6/Mean Cmax Day 1, 1650 mg): 3.18
Kel, apparent first-order terminal elimination rate constant, mean ([3]; Period 1 Day 1, single dose 550 mg): 0.0564 h⁻¹
Kel, apparent first-order terminal elimination rate constant, mean ([3]; Period 1 Day 1, single dose 1100 mg): 0.0617 h⁻¹
Kel, apparent first-order terminal elimination rate constant, mean ([3]; Period 1 Day 1, single dose 1650 mg): 0.0498 h⁻¹
Kel, apparent first-order terminal elimination rate constant, mean ([3]; Period 1 Day 1, single dose 2200 mg): 0.0500 h⁻¹
Kel, mean ([3]; Period 2 Day 6, 550 mg BID): 0.0554 h⁻¹
Kel, mean ([3]; Period 2 Day 6, 1100 mg BID): 0.0404 h⁻¹
Kel, mean ([3]; Period 2 Day 6, 1650 mg BID): 0.0199 h⁻¹
Tmax ([3]; human, in vivo, 550 mg): 3 h
Cmax [3, 4]: 33.4 µg/mL
Vd/F [3, 4]: 28.4 L
AUC(0-t) ([3]; human, in vivo, 550 mg, Period 1 Day 1, single dose 550 mg, read-out: AUC(0-24), mean): 242 µg·h/mL
half-life ([3]; human, in vivo, 550 mg, Period 1 Day 1, single dose 550 mg, read-out: T1/2, harmonic mean (converted)): 12.3 h
Tmax ([3]; human, in vivo, 550 mg, Period 1 Day 1, single dose 550 mg, read-out: Tmax, median): 2 h
Vd/F ([3]; human, in vivo, 550 mg, Period 2 Day 6, 550 mg BID): 9.88 L
Cmax ([3]; human, in vivo, 550 mg, Period 2 Day 6, 550 mg BID, 11 doses): 130 µg/mL
AUC(0-t) ([3]; human, in vivo, 550 mg, Period 2 Day 6, 550 mg BID, read-out: AUC(0-12), mean): 1150 µg·h/mL
half-life ([3]; human, in vivo, 550 mg, Period 2 Day 6, 550 mg BID, read-out: T1/2, harmonic mean (converted)): 12.5 h
concentration at 7 days [3, 5]: ~105 µg/mL
concentration at 24 h [3, 5]: ~74 µg/mL
Cmax [3, 6]: 72.2 µg/mL
Vd/F [3, 6]: 16.9 L
AUC(0-t) ([3]; human, in vivo, 1100 mg, Period 1 Day 1, single dose 1100 mg, read-out: AUC(0-24), mean): 844 µg·h/mL
half-life ([3]; human, in vivo, 1100 mg, Period 1 Day 1, single dose 1100 mg, read-out: T1/2, harmonic mean (converted)): 11.2 h
Vd/F ([3]; human, in vivo, 1100 mg, Period 2 Day 6, 1100 mg BID): 12.7 L
Cmax ([3]; human, in vivo, 1100 mg, Period 2 Day 6, 1100 mg BID, 11 doses): 281 µg/mL
AUC(0-t) ([3]; human, in vivo, 1100 mg, Period 2 Day 6, 1100 mg BID, read-out: AUC(0-12), mean): 2530 µg·h/mL
half-life ([3]; human, in vivo, 1100 mg, Period 2 Day 6, 1100 mg BID, read-out: T1/2, harmonic mean (converted)): 17.1 h
Tmax ([3]; human, in vivo, 1650 mg): 4 h
concentration at 7 days [3, 7]: ~200 µg/mL
concentration at 24 h [3, 7]: ~150 µg/mL
Cmax [3, 8]: 102 µg/mL
Vd/F [3, 8]: 21.1 L
AUC(0-t) ([3]; human, in vivo, 1650 mg, Period 1 Day 1, single dose 1650 mg, read-out: AUC(0-24), mean): 1260 µg·h/mL
Vd/F ([3]; human, in vivo, 1650 mg, Period 2 Day 6, 1650 mg BID): 34.8 L
Cmax ([3]; human, in vivo, 1650 mg, Period 2 Day 6, 1650 mg BID, 11 doses): 324 µg/mL
AUC(0-t) ([3]; human, in vivo, 1650 mg, Period 2 Day 6, 1650 mg BID, read-out: AUC(0-12), mean): 3290 µg·h/mL
half-life ([3]; human, in vivo, 1650 mg, Period 2 Day 6, 1650 mg BID, read-out: T1/2, harmonic mean (converted)): 31.6 h
CL/F, mean ([3]; human, in vivo, 2200 mg): 0.924 L/h
half-life ([3]; human, in vivo, 2200 mg): 13.9 h
Cmax [3, 9]: 128 µg/mL
Vd/F [3, 9]: 19.2 L
AUC(0-t) ([3]; human, in vivo, 2200 mg, Period 1 Day 1, single dose 2200 mg, read-out: AUC(0-24), mean): 1690 µg·h/mL
Tmax ([3]; human, in vivo, 2200 mg, Period 1 Day 1, single dose 2200 mg, read-out: Tmax, median): 6 h
AUC(0-inf) ([3]; human, in vivo, Period 1 Day 1, single dose 550 mg): 441 µg·h/mL
AUC(0-inf) ([3]; human, in vivo, Period 1 Day 1, single dose 1100 mg): 1100 µg·h/mL
AUC(0-inf) ([3]; human, in vivo, Period 1 Day 1, single dose 1650 mg): 1800 µg·h/mL
AUC(0-inf) ([3]; human, in vivo, Period 1 Day 1, single dose 2200 mg): 2650 µg·h/mL
